The results in this text go back to patent publication US10173999B2, “Cyclic amine derivative and pharmaceutical use thereof” (Toray Industries, Inc., priority 2015, dated 2019).

Entries after “also recorded” stand apart in the source; their conditions may differ. Where a name gives a salt, the structure may show the parent alone. Where only a bound is given, the exact number is not on record here.

In series [1] the test system is fibromyalgia syndrome model rats. Description: Rat fibromyalgia syndrome model (acidic saline), allodynia by von Frey filament. Type of series: in vivo. Particulars: for allodynia (50% response threshold) vs acidic saline+distilled water group: Day 7, pregabalin 10 mg/kg. As for the experimental part: To prepare a fibromyalgia syndrome model rat (Sluka et al., Journal of Pharmacology and Experimental Therapeutics, vol. 302, p. 1146-1150, 2002; Nagakura et al., Pain, vol. 146, p. 26-33, 2009; Sluka et al., Pain, vol. 146, p. 3-4, 2009), which is generally employed widely in basic research for fibromyalgia syndrome, acidic saline (100 μL) adjusted to pH 4.0 was intramuscularly injected to the gastrocnemius muscle of the right hind paw of Crl: CD(SD) rat (6 to 7 weeks old, male; from CHARLES RIVER LABORATORIES JAPAN, INC.) under continuous inhalation anesthesia with isoflurane, twice (once in each day of Day 1 and Day 6, wherein Day 1 was the date on which the acidic saline was initially administrated). The rats thus prepared were raised in a breeding room controlled at an indoor temperature of 21 to 25° C. and an indoor humidity of 40 to 70% under the conditions of voluntary intake of food and water. In the same manner, rats to which physiological saline in place of acidic saline was intramuscularly injected were raised. The rats thus raised and not afflicted with fibromyalgia syndrome (“physiological saline+distilled water” group in FIG. 13) were also used in the experiment.
Seven days after the initial administration of acidic saline, allodynia in each rat was measured. […] Note that, measurement of allodynia was performed by use of a von Frey filament (from North Coast Medical) in accordance with the method described in a known literature (Chaplan et al., Journal of Neuroscience Methods, vol. 53, p. 55-63, 1994).
The fibromyalgia syndrome model rats thus obtained are divided into groups such that the 50% response threshold (mean value of the right hind paw and the left hind paw) of the individual groups became equal, and a test compound was administered to the fibromyalgia syndrome model rats on Day 7 after the initial administration of acidic saline.
The compound of Example 11 (0.1 to 10 mg/kg) was dissolved in distilled water and then orally administered to fibromyalgia syndrome model rats (“acidic saline+the compound of Example 11” in FIG. 13). Pregabalin serving as a positive control (10 mg/kg; from KEMPROTEC) was dissolved in distilled water and then orally administered (“acidic saline+pregabalin” in FIG. 13). As a control, distilled water was orally administered to fibromyalgia syndrome model rats (“acidic saline+distilled water” in FIG. 13). Furthermore, distilled water was orally administered to rats not afflicted with fibromyalgia syndrome (“physiological saline+distilled water” in FIG. 13). One hour and three hours after the oral administration, allodynia in individual rats was measured to evaluate an analgesic action. At this time, the 50% response threshold value in the measurement of allodynia before oral administration of the test compound on Day 7 after initial administration of acidic saline was defined as the pre-value.
To prepare a fibromyalgia syndrome model rat (Sluka et al., Journal of Pharmacology and Experimental Therapeutics, vol. 302, p. 1146-50, 2002; Nagakura et al., Pain, vol. 146, p. 26-33, 2009; Sluka et al., Pain, vol. 146, p. 3-4, 2009), which is generally employed widely in basic research for fibromyalgia syndrome, acidic saline (100 μL) adjusted to pH 4.0 was intramuscularly injected to the gastrocnemius muscle of the right hind paw of Slc: (SD) rats (6 to 7 weeks old, male; from Japan SLC, Inc.) under continuous inhalation anesthesia with isoflurane, twice (once in each of Day 1 and Day 6, wherein Day 1 was the initial administration date of the acidic saline). The rats thus prepared were raised in a breeding room controlled at an indoor temperature of 21 to 25° C. and an indoor humidity of 40 to 70% under the conditions of voluntary intake of food and water. In the same manner, rats to which physiological saline was intramuscularly injected in place of acidic saline were raised. […]

In series [2] the test system is human aortic smooth muscle cells (T/G HA-VSMG). The series can be described thus: Inducibility of cytoplasmic vacuolation in human aortic smooth muscle cells. Type of series: cell-based. The settings on record: Concentration: 1.0 mmol/L. As for the experimental part: As a test compound, the compound of Example 3, 9, 11, 12 or compounds of Comparative Examples 2 to 6 were used. Canine aortic smooth muscle cells (Canine Aortic Smooth Muscle Cells, supply source: Toyobo Co., Ltd.) or human aortic smooth muscle cells of (T/G HA-VSMG, supply source: ATCC) were treated with a test compound (1.0 or 1.2 mmol/L in concentration) for 24 hours or 2 weeks. The cells were stained with HE, immunohistochemically for LAMP-2 or toluidine blue, and thereafter the presence or absence of cytoplasmic vacuolation was determined by using an optical microscope.

A further series has as its system Cr1: CD (SD) rats. The series can be described thus: Evaluation of safety in rat, two-week oral administration test. The settings on record: oral. The class given is in vivo. The procedure: As a test compound, the compound of Example 11 or Comparative Example 2 was used. The compound of Example 11 or Comparative Example 2 was administered orally to Cr1: CD (SD) rats (7 weeks old, female and male; from Charles River Laboratories, Inc.), for 2 weeks. Clinical observation, body weight measurement, food intake measurement, ophthalmologic examination (the compound of Example 11, alone), hematological examination, blood chemistry examination, urinalysis, bone marrow examination, pathological anatomical examination, organ weight measurement, histopathological examination and immunotoxicity test were carried out. In addition, toxicokinetics (TK) measurement was carried out on Day 1 and Day 14 after administration. It was confirmed that each test compound was exposed. The administration dose of a test compound was specified as 0, 250, 500, 1000 mg/kg/day and administration volume was specified as 10 mL/kg. As an administration solvent, phosphate-buffered saline was used for the compound of Example 11 and distilled water was used for the compound of Comparative Example 2.

Regarding `CN(C)C1CCN(C(=O)CCc2nccn2C)CC1` [Comparative Example 1, 1-(4-(dimethylamino)piperidin-1-yl)-3-(1-methyl-1H-imidazol-2-yl)propan-1-one hydrochloride], the “allodynia (50% response threshold) vs acidic saline+distilled water group” value in series [1] (Comparative Example 8: oral, Comparative Example 1 0.1 to 1 mg/kg, 1, 2 and 3 h after dosing, hydrochloride) was “statistically significantly improved; also recorded: statistically significant analgesic action”. The “persistence of analgesic action” value in series [1] (oral administration) is “tended to significantly decrease 3 hours after oral administration”.

Take `CN(C)C1CCN(C(=O)C[C@H](O)c2nccn2C)CC1` [Example 11, (S)-1-(4-(dimethylamino)piperidin-1-yl)-3-hydroxy-3-(1-methyl-1H-imidazol-2-yl)propan-1-one]: the figures for the “Inducibility of cytoplasmic vacuolation” value in series [2] (Treatment time: 2 weeks) and in series [2] (Treatment time: 24 hours) were “not observed; also recorded: Absent” and “Absent”, respectively. In addition, the “allodynia (50% response threshold) vs acidic saline+distilled water group” value in series [1] (Example 15: oral, Example 11 0.1 to 10 mg/kg, 1 and 3 h after dosing) was “statistically significantly improved; also recorded: statistically significant analgesic action”. The “time the analgesic action lasted after oral administration” value in series [1] (oral administration) is 3 h. Further, the “no observed adverse effect level” value in the series on Cr1: CD (SD) rats (2 weeks) is given as not below 1000 mg/kg/day. The “findings in examination items” value in the series with Cr1: CD (SD) rats (up to 1000 mg/kg/day for 2 weeks) is given as “abnormality was not observed”.
